From patent US10233179B2, “Thiazoles and uses thereof” (AbbVie Inc., priority 2013, dated 2019)

Key:
HEp-2 cells = assay: Cytotoxicity assay (MTT) in parallel with the antiviral assay; type: cell-based
Method: HEp-2 cells and RSV (Group A, Long Strain) were obtained from the American Type Culture Collection (Manassas, Va.). Cytotoxicity of the compounds was determined in experiments done in parallel with the antiviral assays. To do this, 100 μL of assay medium was added to the wells of HEp-2 cells pretreated with 100 μL serially diluted compounds as described above. After 4 days of incubation, the viability of the cells was determined by the MTT assay in the same way as detailed in the “Antiviral Assay” method. Results were expressed as 50% toxicity dose (TD50) values. Compounds were tested to determine both their antiviral and toxicity to determine their therapeutic window. Determination of the EC50 and TD50 of these active compounds were repeated one additional time to confirm the window.

[1] = system: RSV (Group A, Long Strain); assay: Antiviral cytopathic effect (CPE) protection assay, MTT readout; type: cell-based; conditions: human respiratory syncytial virus, 96 h; HEp-2 cells, 0.2 MOI RSV, 4 days incubation, protection from CPE by MTT
Method: HEp-2 cells and RSV (Group A, Long Strain) were obtained from the American Type Culture Collection (Manassas, Va.).
A cytopathic effect (CPE) protection assay was performed to determine the ability of a compound to protect the cells from viral infection and thus the CPE induced by viral infection. 96-Well plates were first seeded with 3×10^3 HEp-2 cells per well in Dulbecco's modified Eagle's medium (DMEM) containing 10% fetal bovine serum (FBS). One day after the cells were seeded, they were preincubated with serial dilutions of compounds prepared in 100 μL assay medium (DMEM mixed with F12 medium at a 1:1 ratio, supplemented with 2% FBS and 1 mM sodium pyruvate) for 1 hour at 37° C. 100 μL of assay medium containing 0.2 multiplicity of infection (MOI) of RSV was then added to each well of cells. In addition to wells containing infected cells incubated with compounds, each plate also contained replicates of two kinds of controls: (1) Virus control contained cells infected with 0.2 MOI of RSV in assay medium, (2) Uninfected cell control contained cells incubated with assay medium only. After 4 days of incubation at 37° C., the viability of cells was assessed using MTT (Thiazolyl blue tetrazolium bromide, Sigma). A stock solution of MTT, at a concentration of 4 mg/mL in phosphate-buffered saline, was added to all wells at 25 μL per well. Plates were further incubated for 4 hours, and each well was then treated with 50 μL of a solution containing 20% sodium dodecyl sulfate (SDS) and 0.02 N HCl. After an overnight incubation, the plates were measured on a BioTek® microtiter plate reader at wavelengths of 570 nm and 650 nm. The MTT detection is based on the fact that viable (uninfected) cells can reduce the tetrazolium salts into colored formazan products, which can then be quantitated by spectrometry. Based on the spectrometric absorbance of each sample, the percent of protection from CPE, which is an indicator of protection from viral infection, can be calculated for each compound and the 50% effective concentrations (EC50) can be calculated using a nonlinear regression curve fitting equation provided by the GraphPad Prism® 4 software.
Compounds were tested to determine both their antiviral and toxicity to determine their therapeutic window. Determination of the EC50 and TD50 of these active compounds were repeated one additional time to confirm the window.

[2] = uninfected HEp-2 cells, 4 days incubation, MTT viability

SMILES | EC50 [1] [nM] | MTT TD50 (HEp-2 cells; human, 4 days) [µM] | MTT TD50 (HEp-2 cells; [2]) [µM]
c1cc(CN(CCC2(c3ccncc3)CC2)Cc2cccn2-c2nncs2)n(-c2nncs2)c1 [Example 27, 2-[1-(pyridin-4-yl)cyclopropyl]-N,N-bis{[1-(1,3,4-thiadiazol-2-yl)-1H-pyrrol-2-yl]methyl}ethanamine] | 810 | >32 | 
Clc1ccc(CN(Cc2cccn2-c2nccs2)Cc2cccn2-c2nccs2)c(Cl)c1 [Example 29, 1-(2,4-dichlorophenyl)-N,N-bis{[1-(1,3-thiazol-2-yl)-1H-pyrrol-2-yl]methyl}methanamine] | 320 |  | >32
c1cc(CN(Cc2cccn2-c2nccs2)CC2CCCO2)n(-c2nccs2)c1 (centres unmarked) [Example 33, 1-(tetrahydrofuran-2-yl)-N,N-bis{[1-(1,3-thiazol-2-yl)-1H-pyrrol-2-yl]methyl}methanamine] | 4600 |  | 16
Cc1cc(N(Cc2cccn2-c2nccs2)Cc2cccn2-c2nccs2)n(-c2ccccc2)n1 [Example 35, 3-methyl-1-phenyl-N,N-bis{[1-(1,3-thiazol-2-yl)-1H-pyrrol-2-yl]methyl}-1H-pyrazol-5-amine] | 47 |  | >32
Cc1ccccc1CN(Cc1cccn1-c1nccs1)Cc1cccn1-c1nccs1 [Example 37, 1-(2-methylphenyl)-N,N-bis{[1-(1,3-thiazol-2-yl)-1H-pyrrol-2-yl]methyl}methanamine] | 33 |  | 7.1
Clc1cnc(CN(Cc2cccn2-c2nccs2)Cc2cccn2-c2nccs2)c(Cl)c1 [Example 38, 1-(3,5-dichloropyridin-2-yl)-N,N-bis{[1-(1,3-thiazol-2-yl)-1H-pyrrol-2-yl]methyl}methanamine] | 310 |  | 11
Fc1ccccc1CN(Cc1cccn1-c1nccs1)Cc1cccn1-c1nccs1 [Example 40, 1-(2-fluorophenyl)-N,N-bis{[1-(1,3-thiazol-2-yl)-1H-pyrrol-2-yl]methyl}methanamine] | 18 |  | 6.3
Cc1c(C(C)N(Cc2cccn2-c2nccs2)Cc2ncc(-c3ccccc3)n2C)cnn1-c1cccc(F)c1 (centres unmarked) [Example 41, 1-[1-(3-fluorophenyl)-5-methyl-1H-pyrazol-4-yl]-N-[(1-methyl-5-phenyl-1H-imidazol-2-yl)methyl]-N-{[1-(1,3-thiazol-2-yl)-1H-pyrrol-2-yl]methyl}ethanamine] | > 5600 |  | 5.6
Clc1ccc(CN(Cc2cccn2-c2nncs2)Cc2cccn2-c2nncs2)c(Cl)c1 [Example 42, 1-(2,4-dichlorophenyl)-N,N-bis{[1-(1,3,4-thiadiazol-2-yl)-1H-pyrrol-2-yl]methyl}methanamine] | > 32000 |  | 32
C[C@H](c1ccccc1Cl)N(Cc1cccn1-c1nccs1)Cc1cccn1-c1nccs1 [Example 48, (1R)-1-(2-chlorophenyl)-N,N-bis{[1-(1,3-thiazol-2-yl)-1H-pyrrol-2-yl]methyl}ethanamine] | 110 |  | 6.7
C[C@@H](c1ccccc1Cl)N(Cc1cccn1-c1nccs1)Cc1cccn1-c1nccs1 [Example 49, (1S)-1-(2-chlorophenyl)-N,N-bis{[1-(1,3-thiazol-2-yl)-1H-pyrrol-2-yl]methyl}ethanamine] | 45 |  | 4.3
c1cnnc(N(Cc2cccn2-c2nccs2)Cc2cccn2-c2nccs2)c1 [Example 50, N,N-bis{[1-(1,3-thiazol-2-yl)-1H-pyrrol-2-yl]methyl}pyridazin-3-amine] | > 100000 |  | >100
c1ccc(C2(CCN(Cc3cccn3-c3nccs3)Cc3cccn3-c3nccs3)CC2)nc1 [Example 51, 2-[1-(pyridin-2-yl)cyclopropyl]-N,N-bis{[1-(1,3-thiazol-2-yl)-1H-pyrrol-2-yl]methyl}ethanamine] | 45 | 6.2 | 

Second part, led by results:

EC50 [1] [nM] | SMILES | MTT TD50 (HEp-2 cells; human, 4 days) [µM] | MTT TD50 (HEp-2 cells; [2]) [µM]
760 | N#Cc1cc(CN(Cc2cccn2-c2nncs2)Cc2cccn2-c2nncs2)cs1 [Example 28, 4-[(bis{[1-(1,3,4-thiadiazol-2-yl)-1H-pyrrol-2-yl]methyl}amino)methyl]thiophene-2-carbonitrile] |  | >100
54 | COc1ccc(CN(Cc2cccn2-c2nccs2)Cc2cccn2-c2nccs2)c(OC)c1 [Example 30, 1-(2,4-dimethoxyphenyl)-N,N-bis{[1-(1,3-thiazol-2-yl)-1H-pyrrol-2-yl]methyl}methanamine] |  | 4.9
110 | c1ccc(CN(Cc2cccn2-c2nccs2)Cc2cccn2-c2nccs2)cc1 [Example 31, 1-phenyl-N,N-bis{[1-(1,3-thiazol-2-yl)-1H-pyrrol-2-yl]methyl}methanamine] |  | 5.4
410 | c1cc(CN(Cc2cccn2-c2nccs2)CC2C[C@H]3CC[C@@H]2C3)n(-c2nccs2)c1 (stereo partly drawn) [Example 32, 1-[(1R,4S)-bicyclo[2.2.1]hept-2-yl]-N,N-bis{[1-(1,3-thiazol-2-yl)-1H-pyrrol-2-yl]methyl}methanamine] |  | 4.1
3400 | FC(F)(F)c1ccc(CN(Cc2cccn2-c2nccs2)Cc2cccn2-c2nccs2)cc1 [Example 34, 1-[1-(1,3-thiazol-2-yl)-1H-pyrrol-2-yl]-N-{[1-(1,3-thiazol-2-yl)-1H-pyrrol-2-yl]methyl}-N-[4-(trifluoromethyl)benzyl]methanamine] |  | 34
33 | Clc1cccc(Cl)c1CN(Cc1cccn1-c1nccs1)Cc1cccn1-c1nccs1 [Example 36, 1-(2,6-dichlorophenyl)-N,N-bis{[1-(1,3-thiazol-2-yl)-1H-pyrrol-2-yl]methyl}methanamine] |  | 24
3400 | CC(C)CN(Cc1cccn1-c1nccs1)Cc1cccn1-c1nccs1 [Example 39, 2-methyl-N,N-bis{[1-(1,3-thiazol-2-yl)-1H-pyrrol-2-yl]methyl}propan-1-amine] |  | 8.3
> 32000 | Cc1cc(N(Cc2cccn2-c2nncs2)Cc2cccn2-c2nncs2)n(-c2ccc(F)cc2)n1 [Example 43, 1-(4-fluorophenyl)-3-methyl-N,N-bis{[1-(1,3,4-thiadiazol-2-yl)-1H-pyrrol-2-yl]methyl}-1H-pyrazol-5-amine] |  | >32
120 | FC(F)(F)c1cccc(CN(Cc2cccn2-c2nccs2)Cc2cccn2-c2nccs2)c1 [Example 44, 1-[1-(1,3-thiazol-2-yl)-1H-pyrrol-2-yl]-N-{[1-(1,3-thiazol-2-yl)-1H-pyrrol-2-yl]methyl}-N-[3-(trifluoromethyl)benzyl]methanamine] |  | 38
960 | N#Cc1ccc(CN(Cc2cccn2-c2nccs2)Cc2cccn2-c2nccs2)cc1 [Example 45, 4-[(bis{[1-(1,3-thiazol-2-yl)-1H-pyrrol-2-yl]methyl}amino)methyl]benzonitrile] |  | >32
550 | CC(c1ccc(Cl)c(Cl)c1)N(Cc1cccn1-c1nccs1)Cc1cccn1-c1nccs1 (centres unmarked) [Example 46, 1-(3,4-dichlorophenyl)-N,N-bis{[1-(1,3-thiazol-2-yl)-1H-pyrrol-2-yl]methyl}ethanamine] |  | >32
15 | Clc1ccccc1CN(Cc1cccn1-c1nccs1)Cc1cccn1-c1nccs1 [Example 47, 1-(2-chlorophenyl)-N,N-bis{[1-(1,3-thiazol-2-yl)-1H-pyrrol-2-yl]methyl}methanamine] |  | 7.0
